The target of the data set is ATP-dependent translocase ABCB1 (Homo sapiens, UniProt P08183). The data set is described as follows: TP_TRANSPORTER: transepithelial transport in MDR1-transfected MDCKII cells. The format is functional, cell-based. As to conditions: dog, mdck-ii.
Chain of ATP-dependent translocase ABCB1 (P08183 whole entry): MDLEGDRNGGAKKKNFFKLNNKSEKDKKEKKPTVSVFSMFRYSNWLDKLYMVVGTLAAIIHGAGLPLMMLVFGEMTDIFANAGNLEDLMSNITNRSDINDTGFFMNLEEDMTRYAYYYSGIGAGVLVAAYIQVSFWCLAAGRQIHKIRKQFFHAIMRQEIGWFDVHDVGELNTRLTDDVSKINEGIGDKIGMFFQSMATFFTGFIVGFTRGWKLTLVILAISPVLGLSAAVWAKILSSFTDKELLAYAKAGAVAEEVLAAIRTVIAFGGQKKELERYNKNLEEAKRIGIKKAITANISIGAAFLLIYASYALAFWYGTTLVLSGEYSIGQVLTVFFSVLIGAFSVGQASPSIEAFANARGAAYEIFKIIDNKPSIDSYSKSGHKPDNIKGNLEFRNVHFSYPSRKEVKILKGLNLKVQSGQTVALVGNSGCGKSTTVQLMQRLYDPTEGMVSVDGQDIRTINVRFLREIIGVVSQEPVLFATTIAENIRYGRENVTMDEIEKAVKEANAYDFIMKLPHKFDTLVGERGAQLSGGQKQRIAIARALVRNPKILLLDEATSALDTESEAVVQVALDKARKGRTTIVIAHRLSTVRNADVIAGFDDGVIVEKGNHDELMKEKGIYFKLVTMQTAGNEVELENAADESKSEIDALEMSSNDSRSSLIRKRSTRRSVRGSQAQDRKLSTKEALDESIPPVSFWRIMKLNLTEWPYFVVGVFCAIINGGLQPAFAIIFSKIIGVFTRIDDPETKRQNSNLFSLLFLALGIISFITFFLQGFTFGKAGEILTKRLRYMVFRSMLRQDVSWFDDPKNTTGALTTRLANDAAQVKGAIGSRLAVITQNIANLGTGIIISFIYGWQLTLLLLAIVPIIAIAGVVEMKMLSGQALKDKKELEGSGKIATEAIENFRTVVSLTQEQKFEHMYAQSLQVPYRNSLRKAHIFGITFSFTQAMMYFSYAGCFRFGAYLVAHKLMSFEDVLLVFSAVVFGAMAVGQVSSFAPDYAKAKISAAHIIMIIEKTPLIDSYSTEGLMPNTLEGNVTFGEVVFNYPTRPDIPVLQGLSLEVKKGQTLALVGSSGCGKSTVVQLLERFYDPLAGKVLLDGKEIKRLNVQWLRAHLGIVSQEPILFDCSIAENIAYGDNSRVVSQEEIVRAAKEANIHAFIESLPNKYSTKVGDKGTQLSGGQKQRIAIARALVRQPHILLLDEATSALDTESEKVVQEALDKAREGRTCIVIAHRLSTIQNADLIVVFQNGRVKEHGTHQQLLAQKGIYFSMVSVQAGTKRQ

For the molecule `Cc1ccc(NC(=O)c2ccc(CN3CCN(C)CC3)cc2)cc1Nc1nccc(-c2cccnc2)n1` [IMATINIB], the Activity entry is “substrate [+]”.

(Values after ChEMBL document CHEMBL2073958, “Active transport of imatinib into and out of cells: implications for drug resistance” (Blood, 2004).)
